Source: patent publication US11498923B2 (Merck Sharp & Dohme Corp., priority 2017, dated 2022)

Target: T1, human A2a receptor (Homo sapiens, UniProt P29274)
T1 construct: purchased Perkin-Elmer RBHA2AM400UA; host or cells: HEK293 cells, used as a membrane preparation
Test: A2a receptor competition binding assay (Scintillation Proximity)
Conditions: membranes from HEK293 cells expressing human A2a receptor; 0.5 nM tritiated ligand; Cheng-Prusoff; read-out: A2a Ki
How it was run: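 HEK293 membranes bearing the human receptor, pretreated with adenosine deaminase, competed against 0.5 nM tritiated pyrazolotriazolopyrimidine antagonist with compound at 3000–0.15 nM final in DPBS plus 10 mM MgCl2. SPA bead readout after 1 h at room temperature; Ki from EC50 via Cheng-Prusoff.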

T1 sequence (P29274 whole entry): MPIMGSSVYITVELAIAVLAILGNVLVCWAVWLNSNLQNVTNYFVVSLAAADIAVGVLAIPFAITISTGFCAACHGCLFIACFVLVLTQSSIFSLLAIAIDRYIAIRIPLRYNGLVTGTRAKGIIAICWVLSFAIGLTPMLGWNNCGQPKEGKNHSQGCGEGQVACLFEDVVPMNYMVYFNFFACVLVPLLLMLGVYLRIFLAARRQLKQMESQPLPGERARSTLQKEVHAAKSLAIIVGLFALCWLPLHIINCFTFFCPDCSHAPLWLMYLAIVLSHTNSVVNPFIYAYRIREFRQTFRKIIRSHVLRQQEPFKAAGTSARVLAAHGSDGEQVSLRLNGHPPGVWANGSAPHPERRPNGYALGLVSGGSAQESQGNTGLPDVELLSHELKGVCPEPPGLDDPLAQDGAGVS

Point of comparison: `Nc1nc2c(F)cccc2c2nc(COc3ccccc3)cn12` [Ex-146, 7-fluoro-2-(phenoxymethyl)imidazo[1,2-c]quinazolin-5-amine], Ki 33 nM. Against it:
- CCN1CCC(Cc2cn3c(N)nc4c(F)cccc4c3n2)CC1 [Ex-307, 2-((1-ethyl-piperidin-4-yl)methyl)-7-fluoro-imidazo[1,2-c]quina-zolin-5-amine] — 3.6-fold higher, 120 nM
- CCn1cc(-c2cccc3c2nc(N)n2cc(Cc4ccccc4)nc32)cn1 [Ex-150, 2-benzyl-7-(1-ethyl-1H-pyrazol-4-yl)imidazo[1,2-c]quinazolin-5-amine] — 23-fold higher, 760 nM
- CCCN1CCC2(CCN(C(=O)c3cn4c(N)nc5c(F)cccc5c4n3)CC2)C1 [Ex-277, (5-amino-7-fluoroimidazo[1,2-c]quinazolin-2-yl)(2-propyl-2,8-diazaspiro[4.5]decan-8-yl)methanone] — 13-fold higher, 430 nM
- COc1cccc2c1nc(N)n1cc(C(=O)N3CCCC(F)(F)C3)nc21 [Ex-241, (5-amino-7-methoxyimidazo[1,2-c]quinazolin-2-yl)(3,3-difluoropiperidin-1-yl)methanone] — 2.5-fold lower, 13 nM
- COc1cccc2c1nc(N)n1cc(C(=O)N3CCOC(C(F)(F)F)C3)nc21 (stereo not shown) [Ex-185, (5-amino-7-methoxyimidazo[1,2-c]quinazolin-2-yl)(2-(trifluoromethyl)morpholino) methanone] — 2-fold higher, 65 nM
- Nc1nc2c(F)cccc2c2nc(Cn3cc(-c4cc(C(F)(F)F)cc(C(F)(F)F)c4)nn3)cn12 [Ex-94, 2-((4-(3,5-bis(trifluoromethyl)phenyl)-1H-1,2,3-triazol-1-yl)methyl)-7-fluoroimidazo[1,2-c]quinazolin-5-amine] — 4.5-fold higher, 150 nM
- COc1cccc2c1nc(N)n1cc(C(=O)N3CCCC4(C3)OCCO4)nc21 [Ex-231, (5-amino-7-methoxyimidazo[1,2-c]quinazolin-2-yl)(1,4-dioxa-7-azaspiro[4.5]decan-7-yl)methanone] — 3.3-fold lower, 10 nM
- COc1cccc2nc(N)n3cc(Cc4ccccc4)nc3c12 [Ex-05, 2-benzyl-10-methoxyimidazo[1,2-c]quinazolin-5-amine] — 19-fold higher, 642 nM
- COc1cccc2c1nc(N)n1cc(Cc3ccc(N4CCN(C(C)=O)CC4)cc3)nc21 [Ex-44, 1-(4-(4-((5-amino-7-methoxyimidazo[1,2-c]quinazolin-2-yl)methyl)phenyl)piperazin-1-yl)ethan-1-one] — 2.4-fold lower, 14 nM
- COCCOc1ccc(N2CCN(Cc3ccccc3Cc3cn4c(N)nc5c(OC)cccc5c4n3)CC2)cc1 [Ex-66, 7-methoxy-2-(2-((4-(4-(2-methoxyethoxy)phenyl)piperazin-1-yl)methyl)benzyl)imidazo[1,2-c]quinazolin-5-amine] — 2.9-fold lower, 11.5 nM
- Nc1nc2c(F)cccc2c2nc(CC3CCN(Cc4cccs4)CC3)cn12 [Ex-306, 7-fluoro-2-((1-(thio-phen-2-ylmethyl)-piperidin-4-yl)methyl)-imidazo[1,2-c]quina-zolin-5-amine] — within 1.5-fold, 45 nM
- COc1cccc2c1nc(N)n1cc(C(=O)N(C)Cc3cccc4cccnc34)nc21 [Ex-159, 5-amino-7-methoxy-N-methyl-N-(quinolin-8-ylmethyl)imidazo[1,2-c]quinazoline-2-carboxamide] — 5.6-fold lower, 5.9 nM
- Nc1nc2ccccc2c2nc(C(=O)NCc3ccc(F)cc3F)cn12 [Ex-158, 5-amino-N-(2,4-difluorobenzyl)imidazo[1,2-c]quinazoline-2-carboxamide] — within 1.5-fold, 33.9 nM
- COc1cccc2c1nc(N)n1cc(C(=O)N3C[C@@H]4[C@@H]5CC[C@@H](C5)[C@@H]4C3)nc21 [Ex-236, (5-amino-7-methoxyimidazo[1,2-c]quinazolin-2-yl)((3aR,4R,7S,7aS)-octahydro-2H-4,7-methanoisoindol-2-yl)methanone] — 5.2-fold lower, 6.4 nM
- Nc1nc2ccccc2c2nc(-c3ccc(Br)cc3)cn12 [Ex-104, 2-(4-bromophenyl)imidazo[1,2-c]quinazolin-5-amine] — 12-fold higher, 407 nM
- Nc1nc2c(F)cccc2c2nc(CC3CCN(C(=O)c4ccccc4)CC3)cn12 [Ex-315, (4-((5-amino-7-fluoro-imidazo[1,2-c]quina-zolin-2-yl)methyl)-piperidin-1-yl)-(phenyl)methanone] — 2.5-fold higher, 82 nM
- COc1cccc2c1nc(N)n1cc(Cc3ccc(N4CCOCC4)nc3)nc21 [Ex-39, 7-methoxy-2-((6-morpholinopyridin-3-yl)methyl)imidazo[1,2-c]quinazolin-5-amine] — 3.4-fold lower, 9.8 nM
- COc1cccc2c1nc(N)n1cc(C(=O)N3CCC4(CCCO4)CC3)nc21 [Ex-230, (5-amino-7-methoxyimidazo[1,2-c]quinazolin-2-yl)(1-oxa-8-azaspiro[4.5]decan-8-yl)methanone] — 1.9-fold higher, 61.1 nM
- Nc1nc2c(F)cccc2c2nc(Cc3cccc4c3CCN(Cc3ccccn3)C4)cn12 [Ex-58, 7-fluoro-2-((2-(pyridin-2-ylmethyl)-1,2,3,4-tetrahydroisoquinolin-5-yl)methyl)imidazo[1,2-c]quinazolin-5-amine] — 3.3-fold lower, 9.9 nM
- Nc1nc2ccccc2c2nc(CN3CCN(c4ccc(F)cc4F)CC3)cn12 [Ex-116, 2-((4-(2,4-difluorophenyl)piperazin-1-yl)methyl) imidazo[1,2-c] quinazolin-5-amine] — 30-fold higher, 1000 nM
- COc1cccc2c1nc(N)n1cc(Cc3cccc4c3CCN(C(=O)Cc3ccc(F)c(F)c3)C4)nc21 [Ex-59, 1-(5-((5-amino-7-methoxyimidazo[1,2-c]quinazolin-2-yl)methyl)-3,4-dihydroisoquinolin-2(1H)-yl)-2-(3,4-difluorophenyl)ethan-1-one] — 11-fold lower, 2.9 nM
- COc1cccc2c1nc(N)n1cc(C(=O)N3CCC4(CCCC4)CC3)nc21 [Ex-202, (5-amino-7-methoxyimidazo[1,2-c]quinazolin-2-yl)(8-azaspiro[4.5]decan-8-yl)methanone] — 6.3-fold lower, 5.2 nM
- COc1cccc2c1nc(N)n1cc(Cc3cccnc3F)nc21 [Ex-42, 2-((2-fluoropyridin-3-yl)methyl)-7-methoxyimidazo[1,2-c]quinazolin-5-amine] — 12-fold lower, 2.8 nM
- CC(=O)N1CCc2ccc(Cc3cn4c(N)nc5c(F)cccc5c4n3)cc2C1 [Ex-48, 1-(7-((5-amino-7-fluoroimidazo[1,2-c]quinazolin-2-yl)methyl)-3,4-dihydroisoquinolin-2(1H)-yl)ethan-1-one] — 11-fold lower, 3 nM
- COc1cccc2c1nc(N)n1cc(CN3CCN4CCCC[C@@H]4C3)nc21 [Ex-132, (R)-7-methoxy-2-((octahydro-2H-pyrido[1,2-a]pyrazin-2-yl)methyl)imidazo[1,2-c]quinazolin-5-amine] — 4.5-fold higher, 150 nM
- COc1ccc(CNc2nc3c(F)cccc3c3nc(C(=O)N4Cc5ccc(Br)cc5C4)cn23)c(OC)c1 [Ex-164, (5-bromoisoindolin-2-yl)(5-((2,4-dimethoxybenzyl)amino)-7-fluoroimidazo[1,2-c]quinazolin-2-yl)methanone] — higher, > 2200 nM
- COc1cccc2c1nc(N)n1cc(C(=O)N3CCCCC3)nc21 [Ex-190, (5-amino-7-methoxyimidazo[1,2-c]quinazolin-2-yl)(piperidin-1-yl)methanone] — 1.6-fold lower, 21 nM
- COc1cccc2c1nc(N)n1cc(C(=O)N3CCC(C)(C)CC3)nc21 [Ex-207, (5-amino-7-methoxyimidazo[1,2-c]quinazolin-2-yl)(4,4-dimethylpiperidin-1-yl)methanone] — 16-fold lower, 2.1 nM
- Nc1nc2c(OC(F)(F)F)cccc2c2nc(Cc3ccccc3)cn12 [Ex-10, 2-benzyl-7-(trifluoromethoxy)imidazo[1,2-c]quinazolin-5-amine] — 5.3-fold lower, 6.2 nM
- COc1cccc2c1nc(N)n1cc(CCN3Cc4cccnc4C3)nc21 [Ex-137, 2-(2-(5,7-dihydro-6H-pyrrolo[3,4-b]pyridin-6-yl)ethyl)-7-methoxyimidazo[1,2-c]quinazolin-5-amine] — 2.5-fold lower, 13.1 nM
- Nc1nc2c(F)cccc2c2nc(C(=O)N3CCc4cc(NC(=O)c5ccccn5)ccc4C3)cn12 [Ex-286, N-(2-(5-amino-7-fluoroimidazo[1,2-c]quinazoline-2-carbonyl)-1,2,3,4-tetrahydroisoquinolin-6-yl)picolinamide] — 1.7-fold lower, 19 nM
- COc1cccc2c1nc(N)n1cc(C(=O)N3CCC(F)(F)C3)nc21 [Ex-221, (5-amino-7-methoxyimidazo[1,2-c]quinazolin-2-yl)(3,3-difluoropyrrolidin-1-yl)methanone] — 5-fold lower, 6.6 nM
- Nc1nc2c(F)cccc2c2nc(Cc3cccc4c3CCN(CCc3ccccn3)C4)cn12 [Ex-57, 7-fluoro-2-((2-(2-(pyridin-2-yl)ethyl)-1,2,3,4-tetrahydroisoquinolin-5-yl)methyl)imidazo[1,2-c]quinazolin-5-amine] — 1.8-fold lower, 18 nM
- Nc1nc2c(F)cccc2c2nc(C(=O)N3CCN4CCCC[C@H]4C3)cn12 [Ex-285, (S)-(5-amino-7-fluoroimidazo[1,2-c]quinazolin-2-yl)(octahydro-2H-pyrido[1,2-a]pyrazin-2-yl)methanone] — within 1.5-fold, 40 nM
- Nc1nc2c(F)cccc2c2nc(CC3CCN(C(=O)c4cnccn4)CC3)cn12 [Ex-321, (4-((5-amino-7-fluoroimidazo[1,2-c]quinazolin-2-yl)-methyl)piperidin-1-yl)(pyrazin-2-yl)-methanone] — within 1.5-fold, 34 nM
- Nc1nc2c(F)cccc2c2nc(CN3CCOc4cccnc43)cn12 [Ex-118, 2-((2,3-dihydro-4H-pyrido[3,2-b][1,4]oxazin-4-yl)methyl)-7-fluoroimidazo[1,2-c]quinazolin-5-amine] — 8.5-fold lower, 3.9 nM
- COc1cccc2c1nc(N)n1cc(Cc3c(F)cccc3-c3ccc(C(F)(F)F)nc3)nc21 [Ex-79, 2-(2-fluoro-6-(6-(trifluoromethyl)pyridin-3-yl)benzyl)-7-methoxyimidazo[1,2-c]quinazolin-5-amine] — 14-fold lower, 2.4 nM
- Nc1nc2c(F)cccc2c2nc(C(=O)N3CCN4CCCC[C@@H]4C3)cn12 [Ex-284, (R)-(5-amino-7-fluoroimidazo[1,2-c]quinazolin-2-yl)(octahydro-2H-pyrido[1,2-a]pyrazin-2-yl)methanone] — the same, 33 nM
- COc1cccc2c1nc(N)n1cc(Cc3ccccc3N(C)C)nc21 [Ex-20, 2-(2-(dimethylamino)benzyl)-7-methoxyimidazo[1,2-c]quinazolin-5-amine] — 24-fold lower, 1.4 nM
